Reference: patent publication US20150274639A1, “METHODS OF USE FOR COMPOSITIONS COMPRISING A BIOCIDAL POLYAMINE” (Curza Global, LLC, priority 2013, published 2015)
Several values for one entry are separate records, joined by “and”; a condition that tells them apart may be missing. Identical values can stand only once.

Key:
MRSA [1] = experiment: Zones of inhibition on cation adjusted Mueller Hinton agar (Example 2); type: cell-based, methicillin-resistant Staphylococcus aureus; conditions: 50 μL drop on MRSA lawn, 37° C., 24 hours
Description: (§1) A compound was screened for its ability to create zones of inhibition on cation adjusted Mueller Hinton agar. It is believed that the compound of Example 2 may be represented by the structure disclosed in FIG. 4H. To perform this test, lawns of methicillin-resistant Staphylococcus aureus (MRSA) or Pseudomonas aeruginosa ATCC 27853 were made on cation adjusted Mueller Hinton agar using standard microbiological techniques. Immediately after plating bacteria on agar, a 50 μL drop of the compound was placed onto the agar surface. The compound was tested in duplicate at 100 μg/mL, 50 μg/mL, 25 μg/mL and 10 μg/mL. All plates were incubated at 37° C. for 24 hours.

[2] = test system: Pseudomonas aeruginosa ATCC 27853; experiment: as above; type: cell-based; conditions: 50 μL drop on P. aeruginosa lawn, 37° C., 24 hours
Description: as §1

MRSA [3] = experiment: MIC, CLSI M26-A microdilution (Example 2); type: cell-based, methicillin-resistant Staphylococcus aureus; conditions: Staphylococcus aureus, 10^5 to 10^2 cells/mL in 24 hours
Description: (§2) The second test determined the minimum inhibitory concentration (MIC) of the compound against MRSA and P. aeruginosa ATCC 27853. […] This definition was consistent with the Clinical and Laboratory Standards Institute (CLSI). More specifically, the microdilution method as outlined in the M26-A CLSI guideline was used. All tests were performed with cation adjusted Mueller Hinton broth.

P. aeruginosa ATCC 27853 = experiment: MIC, CLSI M26-A microdilution (Example 2); type: cell-based; conditions: Pseudomonas aeruginosa, ATCC27853, 10^5 to 10^2 cells/mL in 24 hours
Description: as §2

MRSA biofilm [4] = experiment: MBEC assay (Calgary Biofilm Device), 100% eradication (Example 2); type: cell-based, methicillin-resistant Staphylococcus aureus; conditions: eradicate 100% of detectable biofilm, listed as PBC-51
Description: (§3) In addition to determining the MIC, the minimum biofilm eradication concentration (MBEC) of PBC-51 was also determined. The MBEC was determined using the MBEC assay, formerly known as the Calgary Biofilm Device, developed by Innovotech. In this instance, the MBEC was defined as the amount of antimicrobial required to eradicate 100% of detectable biofilm after being grown in the MBEC device. To grow the biofilms within this device, 150 μL of solution containing a concentration of 10^5 cells/mL were inoculated into each well of a 96-well plate. A lid containing 96 pegs was placed onto the plate and incubated for 24 hours at 37° C. while being shaken at 110 rpm. Biofilms developed on the surface of the polystyrene pegs within the 96-well plate. After 24 hours, each peg contained between 10^5 and 10^6 cells in well-established biofilms. The lid with pegs was transferred to a 96-well plate that contained 200 μL of varying concentrations of the compound and was incubated at 37° C. for an additional 24 hours. The plate was then sonicated, and the biofilms quantified using a 10-fold dilution series to determine the MBEC.

[5] = test system: P. aeruginosa ATCC 27853 biofilm; experiment: as above; type: cell-based, Pseudomonas aeruginosa; conditions: eradicate 100% of detectable biofilm, listed as PBC-51
Description: as §3

MRSA biofilm [6] = experiment: EBEC on PEEK membranes, 100% eradication (Example 2); type: cell-based, methicillin-resistant Staphylococcus aureus; conditions: PEEK membrane, eradicate all detectable amounts (100%), listed as PBC-51
Description: (§4) The fourth test that was performed was the effective biofilm eradication concentration (EBEC). To determine the EBEC, biofilms of MRSA and P. aeruginosa ATCC 27853 were grown on the surface of PEEK membranes using a previously established protocol. Briefly, 500 mL of brain heart infusion (BHI) broth were inoculated with 10^5 cells/mL of MRSA or P. aeruginosa. BHI broth was placed into a membrane biofilm reactor and placed on a hot plate set at 34° C. for 24 hours with a stir bar rotating at 130 rpm. Following the initial 24-hour growth period, a 10% BHI broth solution was flowed through the reactor at a rate of 6.944 mL/min for another 24 hours. After 48 hours of growth, each PEEK membrane had biofilm growth on it. In this experiment, there were ˜2×10^11 cells of MRSA per PEEK membrane and −2×10^10 cells of P. aeruginosa per PEEK membrane. The EBEC was defined as the concentration of the compound that was required to eradicate all detectable amounts (100%) of bacteria within the biofilms.

[7] = test system: P. aeruginosa ATCC 27853 biofilm; experiment: as above; type: cell-based, Pseudomonas aeruginosa; conditions: PEEK membrane, eradicate all detectable amounts (100%), listed as PBC-51
Description: as §4

Columbia blood agar = experiment: Hemolytic nature on Columbia blood agar; type: cell-based; conditions: 100 μg/mL, 50 μg/mL and 25 μg/mL; 20 μL on Columbia blood agar, 37° C., 24 hours
Description: In addition to determining the antimicrobial efficacy of the compound, an initial test was performed to determine its hemolytic nature. To do so, the compound was suspended in concentrations of 100 μg/mL, 50 μg/mL and 25 μg/mL. Twenty μL of each concentration was placed onto the surface of Columbia blood agar and incubated at 37° C. for 24 hours.

[8] = test system: biofilms of MRSA and P. aeruginosa; experiment: Visual observation of biofilm dispersal from PEEK membranes; type: cell-based; conditions: 300, 200 and 100 μg/mL
Description: Initial tests based on visual observation were performed to determine the ability of the compound to disperse biofilms. This was done by observing the biofilms of MRSA and P. aeruginosa that had grown on the surface of PEEK membranes after they had been placed in three separate concentrations of the compound (300 μg/mL, 200 μg/mL and 100 μg/mL). Biofilms were observed every 30 minutes to see if they separated from the PEEK membrane.

MIC (MRSA [3]): ~1 µg/mL and ~1.88 µM
MIC (P. aeruginosa ATCC 27853): ~6 µg/mL and ~11.3 µM
Compound: CC(C)(C)OC(=O)NCCCNCCCNCc1cc(CNCCCNCCCN)cc(CNCCCNCCCN)c1 [CZ-51]
concentration at which total clearing was seen (MRSA [1]): 10 µg/mL
concentration at which partial clearing was seen [2]: 25 µg/mL
concentration at which total clearing was seen [2]: 50 µg/mL
MBEC (MRSA biofilm [4]): < 25 μg/mL and < 47 μM
MBEC [5]: ~35 μg/mL and ~65.92 μM
EBEC (MRSA biofilm [6]): ~250 μg/mL and ~470.88 μM
EBEC [7]: < 100 μg/mL and < 188.33 μM
hemolytic activity (Columbia blood agar): none of these concentrations displayed hemolytic activity
biofilm separated from the PEEK membrane by 24 hours [8]: all detectable amounts of biofilm had separated
biofilms separated from the PEEK membrane by 4 hours [8]: approximately half
time at which biofilms began to separate from the PEEK membranes [8]: ≤ 2 h
